Test results reported in ChEMBL document CHEMBL1132265, “Synthesis and evaluation of glucocerebrosidase inhibitory activity of anhydro deoxyinositols from (+)-epi- and (-)-vibo-quercitols” (Bioorg Med Chem Lett, 1999).
Values belong to the molecule of their own block, whether it stands above or below them.

Key:
[1] = target: T1, Lysosomal acid glucosylceramidase (Mus musculus, UniProt P17439); experiment: Specific inhibitory activity against Glucosylceramidase in mouse liver; Significant activity
T1 sequence (P17439 whole entry): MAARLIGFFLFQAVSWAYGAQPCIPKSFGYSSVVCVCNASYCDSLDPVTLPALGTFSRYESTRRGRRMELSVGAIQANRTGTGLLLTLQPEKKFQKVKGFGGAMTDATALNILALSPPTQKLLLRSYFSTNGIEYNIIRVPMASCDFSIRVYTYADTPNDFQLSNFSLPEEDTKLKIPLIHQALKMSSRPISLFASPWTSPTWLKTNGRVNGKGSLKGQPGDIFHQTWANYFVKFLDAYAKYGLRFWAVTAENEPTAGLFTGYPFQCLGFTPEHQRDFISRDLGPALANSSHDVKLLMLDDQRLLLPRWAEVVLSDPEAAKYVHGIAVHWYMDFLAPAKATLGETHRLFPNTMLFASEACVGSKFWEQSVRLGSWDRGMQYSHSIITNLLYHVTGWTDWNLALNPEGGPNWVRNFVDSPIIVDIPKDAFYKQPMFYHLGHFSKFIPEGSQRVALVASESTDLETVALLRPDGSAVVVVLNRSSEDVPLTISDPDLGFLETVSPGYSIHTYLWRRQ

[2] = target: T1, Lysosomal acid glucosylceramidase; experiment: Inhibitory activity against Glucosylceramidase in mouse liver at a concentration of 10e-4 M; NA is inactive; type: tissue-based
[3] = target: T1, Lysosomal acid glucosylceramidase; experiment: Inhibitory activity against Glucosylceramidase in mouse liver; Significant activity
[4] = target: T1, Lysosomal acid glucosylceramidase; experiment: Inhibitory activity against Glucosylceramidase in mouse liver; type: tissue-based
Galactocerebrosidase = target: T2, Galactocerebrosidase (Mus musculus, UniProt P54818); experiment: Inhibitory activity against Galactocerebrosidase; NA is not active
T2 sequence (P54818 whole entry): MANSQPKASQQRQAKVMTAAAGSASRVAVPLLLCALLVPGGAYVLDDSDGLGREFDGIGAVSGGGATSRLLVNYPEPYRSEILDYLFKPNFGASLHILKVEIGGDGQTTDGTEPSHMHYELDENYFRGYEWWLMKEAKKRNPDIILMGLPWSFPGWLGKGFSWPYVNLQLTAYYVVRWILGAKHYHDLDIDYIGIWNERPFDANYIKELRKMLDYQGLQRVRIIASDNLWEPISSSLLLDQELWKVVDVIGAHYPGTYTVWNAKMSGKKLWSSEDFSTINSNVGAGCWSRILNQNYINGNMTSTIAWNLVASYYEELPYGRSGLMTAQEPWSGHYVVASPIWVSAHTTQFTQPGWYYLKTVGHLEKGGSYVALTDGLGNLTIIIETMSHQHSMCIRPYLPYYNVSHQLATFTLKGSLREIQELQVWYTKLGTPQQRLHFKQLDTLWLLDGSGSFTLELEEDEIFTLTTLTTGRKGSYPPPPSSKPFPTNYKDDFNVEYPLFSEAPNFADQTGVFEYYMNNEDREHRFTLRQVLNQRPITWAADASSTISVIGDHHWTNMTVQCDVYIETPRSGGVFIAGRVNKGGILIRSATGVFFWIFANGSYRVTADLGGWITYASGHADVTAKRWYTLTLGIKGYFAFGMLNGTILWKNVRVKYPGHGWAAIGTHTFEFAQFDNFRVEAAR

[5] = target: T1, Lysosomal acid glucosylceramidase; experiment: Specific inhibitory activity against Glucosylceramidase in mouse liver; type: tissue-based
[6] = target: T1, Lysosomal acid glucosylceramidase; experiment: Inhibitory activity against Glucosylceramidase in mouse liver relative to compound 5; Active; type: tissue-based

Compound: OC[C@@H]1[C@@H](O)[C@H](O)[C@@H](O)[C@@H]2O[C@H]12 [CYCLOPHELLITOL]
- IC50 [1]: Significant activity

Compound: O[C@H]1[C@H]2O[C@H]2[C@H](O)C[C@H]1O
- IC50 [2]: Not Active

Compound: O[C@H]1[C@H](O)[C@H](O)C[C@@H]2O[C@H]12
- IC50 [2]: Not Active

Compound: O[C@@H]1[C@H](O)[C@H]2O[C@H]2C[C@@H]1O
- IC50 [2]: Not Active

Compound: O[C@@H]1[C@H](O)[C@H](O)C[C@H]2O[C@@H]12
- IC50 [2]: Not Active

Compound: O[C@@H]1[C@H]2O[C@H]2[C@H](O)C[C@H]1O
- IC50 [4]: 98 µM

Compound: O[C@@H]1[C@@H](O)[C@H](O)C[C@H]2O[C@@H]12
- IC50 (Galactocerebrosidase): Not Active
- IC50 [4]: 0.96 µM

Compound: O[C@H]1[C@H](O)[C@@H](O)[C@@H]2O[C@@H]2[C@@H]1O [CONDURITOL B EPOXIDE]
- IC50 [5]: 8.9 µM

The remaining lines, values ahead:

- IC50 [3]: Significant activity
Compound: O[C@@H]1[C@@H](O)[C@H](O)C[C@H](O)[C@@H]1O

- IC50 [2]: Not Active
Compound: O[C@@H]1[C@H](O)[C@H]2O[C@H]2C[C@H]1O

- IC50 [3]: Significant activity
Compound: O[C@@H]1[C@@H](O)[C@H](O)C[C@@H](O)[C@H]1O

- IC50 [2]: Not Active
Compound: O[C@@H]1[C@H]2O[C@H]2[C@H](O)C[C@@H]1O

- IC50 [6]: Active
Compound: O[C@H]1[C@@H]2O[C@@H]2[C@H](O)C[C@@H]1O

- IC50 [6]: Active
Compound: O[C@@H]1[C@@H](O)[C@H](O)C[C@@H]2O[C@H]12

- IC50 [2]: Not Active
Compound: O[C@H]1[C@@H]2O[C@@H]2[C@@H](O)C[C@H]1O

- IC50 [2]: Not Active
Compound: O[C@@H]1[C@H]2O[C@H]2[C@@H](O)C[C@H]1O
